{"source": "patent US11026880B2", "about": "“Extract of passionflower seeds and cosmetic, pharmaceutical, dermatological and nutraceutical compositions comprising same” (Laboratoires Expanscience, priority 2012, dated 2021)", "key": {"Jurkat cells": {"system": "Jurkat cells", "assay": "Lipid peroxidation in UV-irradiated Jurkat cells (C11-fluorine probe, flow cytometry)", "type": "cell-based", "details": "UV + 50 μM BHT", "procedure": "The protective effect of passionflower hydrolysate on lipid peroxidation was evaluated in UV-irradiated Jurkat cells.\nJurkat cells were incubated for 45 minutes in the presence or absence of passionflower hydrolysate or the reference (50 μM BHT) and in the presence of the fluorescent probe specific for the measurement of lipid peroxides (C11-fluorine). This fluorescent probe is a lipid analog that integrates into membranes and whose fluorescence intensity decreases when peroxidized. The cells were then irradiated by UV (UVB 240 mJ/cm^2+UVA 3.5 J/cm^2) in the presence of passionflower hydrolysate or the reference. At the conclusion of the irradiation, the cells were incubated for 30 minutes at 37° C. prior to being analyzed by flow cytometry. The fluorescence intensity results obtained were expressed as a % of the irradiated control."}, "[1]": {"system": "Normal human keratinocytes", "assay": "Production of reactive oxygen species in keratinocytes under H2O2 stress (DCFH-DA probe)", "type": "cell-based", "details": "for Amount of ROS DFU/OD540 (mean ± standard deviation): 24 hours preincubation, 100 μM H2O2 20 minutes", "procedure": "The antioxidant action of passionflower hydrolysate on oxidative stress generated by hydrogen peroxide (H2O2) in keratinocytes was evaluated by measuring the amount of reactive oxygen species produced. This test is based on the use of a probe (DCFH-DA) that breaks down and fluoresces in contact with reactive oxygen species (ROS). The fluorescence emitted will be thus proportional to the amount of ROS produced by the cell in response to oxidative stress. Normal human keratinocytes were preincubated for 24 hours in the presence of passionflower hydrolysate or the reference molecules: 10 μM quercetin or 500 μM vitamin C. The cells were then incubated for 1 hour in the presence of the probe DCFH-DA and then treated with 100 μM H2O2 for 20 minutes, still in the presence of passionflower hydrolysate or the reference molecules. The ROS assay was carried out by measuring the fluorescence emitted. The results were normalized to the number of living cells determined using a neutral red uptake assay carried out in parallel. The amount of ROS emitted is thus expressed as fluorescence density (DFU)/optical density resulting from the neutral red assay (OD540). The results were statistically analyzed by one-way analysis of variance followed by Tukey's test."}}}
{"smiles": "Cc1cc(C(C)(C)C)c(O)c(C(C)(C)C)c1", "note": "[BHT]", "values": [{"measurement": "Protection (%) against lipid peroxidation", "setting": "Jurkat cells", "result": 31, "unit": "%"}, {"measurement": "Amount of lipid peroxides (% of the irradiated control)", "setting": "Jurkat cells; UVB 240 mJ/cm^2+UVA 3.5 J/cm^2", "result": "83 % of the irradiated control"}]}
{"smiles": "O=c1c(O)c(-c2ccc(O)c(O)c2)oc2cc(O)cc(O)c12", "note": "[Quercetin, quercetin]", "values": [{"measurement": "Amount of ROS DFU/OD540 (mean ± standard deviation)", "setting": "[1]; 10 μM quercetin", "result": "84549.570 ± 9476.724", "unit": "DFU/OD540"}, {"measurement": "inhibition at 10 µM", "setting": "[1]; Homo sapiens, Keratinocyte, 10 μM quercetin, 100 μM H2O2, read-out: Inhibition relative to the H2O2 control (ROS)", "result": 71, "unit": "%"}]}
{"smiles": "O=C1O[C@H]([C@@H](O)CO)C(O)=C1O", "note": "[Vitamin C, vitamin C]", "values": [{"measurement": "Amount of ROS DFU/OD540 (mean ± standard deviation)", "setting": "[1]; 500 μM vitamin C", "result": "35997.820 ± 10389.067", "unit": "DFU/OD540"}, {"measurement": "inhibition at 500 µM", "setting": "[1]; Homo sapiens, Keratinocyte, 500 μM vitamin C, 100 μM H2O2, read-out: Inhibition relative to the H2O2 control (ROS)", "result": 87, "unit": "%"}]}
